Reference: ChEMBL document CHEMBL4342527, “Discovery of Novel Fungal Lanosterol 14α-Demethylase (CYP51)/Histone Deacetylase Dual Inhibitors to Treat Azole-Resistant Candidiasis” (J Med Chem, 2020)
Values after ≈ are worked out from the molar mass of the structure shown.

Columns and labels:
Candida albicans [1] = test: Antifungal activity against azole-sensitive Candida albicans SC5314 after 48 hrs by spectrophotometry-based serial microdilution method; assay type: functional; settings: Candida albicans, SC5314, 48 h; read-out: MIC80
Candida albicans [2] = test: Antifungal activity against azole-resistant Candida albicans 0304103 after 48 hrs by spectrophotometry-based serial microdilution method; assay type: functional; settings: Candida albicans, 0304103, 48 h
Candida albicans [3] = test: Antifungal activity against azole-resistant Candida albicans 7781 after 48 hrs by spectrophotometry-based serial microdilution method; assay type: functional; settings: Candida albicans, 7781, 48 h
Candida albicans [4] = test: Antifungal activity against azole-resistant Candida albicans 4108 after 48 hrs by spectrophotometry-based serial microdilution method; assay type: functional; settings: Candida albicans, 4108, 48 h
Candida tropicalis = test: Antifungal activity against azole-resistant Candida tropicalis 5008 after 48 hrs by spectrophotometry-based serial microdilution method; assay type: functional; settings: Candida tropicalis, 5008, 48 h
Cryptococcus neoformans = test: Antifungal activity against azole-sensitive Cryptococcus neoformans H99 after 72 hrs by spectrophotometry-based serial microdilution method; assay type: functional, var grubii H99; settings: Cryptococcus neoformans, var grubii H99 , 72 h; read-out: MIC80

`CN(Cc1ccc(-n2cnn(CCCCCC(=O)NO)c2=O)cc1)CC(O)(Cn1cncn1)c1ccc(F)cc1F` (racemic) showed an MIC80 (Candida albicans [1]) of 32 µg/mL (≈ 56.1 µM), an MIC80 (Candida albicans [2]) of 16 µg/mL (≈ 28 µM) and an MIC80 (Candida albicans [3]) of 32 µg/mL (≈ 56.1 µM). The MIC80 (Candida albicans [4]) was 64 µg/mL (≈ 112 µM), the MIC80 (Candida tropicalis) was 64 µg/mL (≈ 112 µM) and the MIC80 (Cryptococcus neoformans) was 8 µg/mL (≈ 14 µM).

`CN(Cc1cccc(OCCCOc2ccc(CC(=O)NO)cc2)c1)CC(O)(Cn1cncn1)c1ccc(F)cc1F` (racemic) gave an MIC80 (Candida albicans [1]) of 2 µg/mL (≈ 3.44 µM), an MIC80 (Candida albicans [2]) of 4 µg/mL (≈ 6.88 µM) and an MIC80 (Candida albicans [3]) of 2 µg/mL (≈ 3.44 µM). For the same compound, the MIC80 (Candida albicans [4]) was 2 µg/mL (≈ 3.44 µM), the MIC80 (Candida tropicalis) was 2 µg/mL (≈ 3.44 µM) and the MIC80 (Cryptococcus neoformans) was 1 µg/mL (≈ 1.72 µM).

`CC(C)N(Cc1ccc(OCCCOc2ccc(CC(=O)NO)cc2)cc1)CC(O)(Cn1cncn1)c1ccc(F)cc1F` (racemic) was tested, and the MIC80 (Candida albicans [1]) was 2 µg/mL (≈ 3.28 µM), the MIC80 (Candida albicans [2]) was 2 µg/mL (≈ 3.28 µM) and the MIC80 (Candida albicans [3]) was 2 µg/mL (≈ 3.28 µM). It also gave an MIC80 (Candida albicans [4]) of 4 µg/mL (≈ 6.56 µM), an MIC80 (Candida tropicalis) of 4 µg/mL (≈ 6.56 µM) and an MIC80 (Cryptococcus neoformans) of 2 µg/mL (≈ 3.28 µM).

`CN(Cc1ccccc1OCCCOc1ccc(CC(=O)NO)cc1)CC(O)(Cn1cncn1)c1ccc(F)cc1F` (racemic) was tested, and the MIC80 (Candida albicans [1]) was 1 µg/mL (≈ 1.72 µM), the MIC80 (Candida albicans [2]) was 2 µg/mL (≈ 3.44 µM) and the MIC80 (Candida albicans [3]) was 2 µg/mL (≈ 3.44 µM). The MIC80 (Candida albicans [4]) was 2 µg/mL (≈ 3.44 µM), the MIC80 (Candida tropicalis) was 2 µg/mL (≈ 3.44 µM) and the MIC80 (Cryptococcus neoformans) was 0.5 µg/mL (≈ 0.86 µM).

`CN(Cc1ccc(OCCCCCC(=O)NO)cc1)CC(O)(Cn1cncn1)c1ccc(F)cc1F` (racemic) showed an MIC80 (Candida albicans [1]) of 1 µg/mL (≈ 1.99 µM), an MIC80 (Candida albicans [2]) of 2 µg/mL (≈ 3.97 µM) and an MIC80 (Candida albicans [3]) of 1 µg/mL (≈ 1.99 µM). For the same compound, the MIC80 (Candida albicans [4]) was 4 µg/mL (≈ 7.94 µM), the MIC80 (Candida tropicalis) was 8 µg/mL (≈ 15.9 µM) and the MIC80 (Cryptococcus neoformans) was 1 µg/mL (≈ 1.99 µM).

For `CN(Cc1ccc(OCCCCCCC(=O)NO)cc1)CC(O)(Cn1cncn1)c1ccc(F)cc1F` (racemic), the MIC80 (Candida albicans [1]) was 1 µg/mL (≈ 1.93 µM), the MIC80 (Candida albicans [2]) was 1 µg/mL (≈ 1.93 µM) and the MIC80 (Candida albicans [3]) was 1 µg/mL (≈ 1.93 µM). The MIC80 (Candida albicans [4]) was 1 µg/mL (≈ 1.93 µM), the MIC80 (Candida tropicalis) was 2 µg/mL (≈ 3.86 µM) and the MIC80 (Cryptococcus neoformans) was 1 µg/mL (≈ 1.93 µM).

For `CN(Cc1ccc(-n2cnn(CCCCCCCCC(=O)NO)c2=O)cc1)CC(O)(Cn1cncn1)c1ccc(F)cc1F` (racemic), the MIC80 (Candida albicans [1]) was 2 µg/mL (≈ 3.26 µM), the MIC80 (Candida albicans [2]) was 4 µg/mL (≈ 6.53 µM) and the MIC80 (Candida albicans [3]) was 4 µg/mL (≈ 6.53 µM). The MIC80 (Candida albicans [4]) was 32 µg/mL (≈ 52.2 µM), the MIC80 (Candida tropicalis) was 8 µg/mL (≈ 13.1 µM) and the MIC80 (Cryptococcus neoformans) was 4 µg/mL (≈ 6.53 µM).

Work on `CN(Cc1ccc(-n2cnn(CCCCC(=O)NO)c2=O)cc1)CC(O)(Cn1cncn1)c1ccc(F)cc1F` (racemic) yielded an MIC80 (Candida albicans [1]) of 32 µg/mL (≈ 57.5 µM), an MIC80 (Candida albicans [2]) of 64 µg/mL (≈ 115 µM) and an MIC80 (Candida albicans [3]) of over 64 µg/mL. It also gave an MIC80 (Candida albicans [4]) of over 64 µg/mL, an MIC80 (Candida tropicalis) of over 64 µg/mL and an MIC80 (Cryptococcus neoformans) of 64 µg/mL (≈ 115 µM).

With `CN(Cc1cccc(OCCCOc2ccc(C(=O)NO)cc2)c1)CC(O)(Cn1cncn1)c1ccc(F)cc1F` (racemic) the MIC80 (Candida albicans [1]) was 1 µg/mL (≈ 1.76 µM), the MIC80 (Candida albicans [2]) was 2 µg/mL (≈ 3.52 µM) and the MIC80 (Candida albicans [3]) was 4 µg/mL (≈ 7.05 µM). It also gave an MIC80 (Candida albicans [4]) of 2 µg/mL (≈ 3.52 µM), an MIC80 (Candida tropicalis) of 4 µg/mL (≈ 7.05 µM) and an MIC80 (Cryptococcus neoformans) of 0.125 µg/mL (≈ 0.22 µM).

In the case of `CN(Cc1cccc(OCCCOc2ccc(CCC(=O)NO)cc2)c1)CC(O)(Cn1cncn1)c1ccc(F)cc1F` (racemic), the MIC80 (Candida albicans [1]) is reported as 4 µg/mL (≈ 6.72 µM), the MIC80 (Candida albicans [2]) is reported as 8 µg/mL (≈ 13.4 µM) and the MIC80 (Candida albicans [3]) is reported as 8 µg/mL (≈ 13.4 µM). For the same compound, the MIC80 (Candida albicans [4]) was 4 µg/mL (≈ 6.72 µM), the MIC80 (Candida tropicalis) was 8 µg/mL (≈ 13.4 µM) and the MIC80 (Cryptococcus neoformans) was 2 µg/mL (≈ 3.36 µM).

`CN(Cc1ccc(OCCCOc2ccc(C(=O)NO)cc2)cc1)CC(O)(Cn1cncn1)c1ccc(F)cc1F` (racemic) showed an MIC80 (Candida albicans [1]) of 0.125 µg/mL (≈ 0.22 µM), an MIC80 (Candida albicans [2]) of 0.5 µg/mL (≈ 0.881 µM) and an MIC80 (Candida albicans [3]) of 1 µg/mL (≈ 1.76 µM). For the same compound, the MIC80 (Candida albicans [4]) was 1 µg/mL (≈ 1.76 µM), the MIC80 (Candida tropicalis) was 0.25 µg/mL (≈ 0.44 µM) and the MIC80 (Cryptococcus neoformans) was 0.5 µg/mL (≈ 0.881 µM).

`CN(Cc1ccccc1OCCCOc1ccc(C(=O)NO)cc1)CC(O)(Cn1cncn1)c1ccc(F)cc1F` (racemic) was tested, and the MIC80 (Candida albicans [1]) was 4 µg/mL (≈ 7.05 µM), the MIC80 (Candida albicans [2]) was 4 µg/mL (≈ 7.05 µM) and the MIC80 (Candida albicans [3]) was 4 µg/mL (≈ 7.05 µM). It also gave an MIC80 (Candida albicans [4]) of 1 µg/mL (≈ 1.76 µM), an MIC80 (Candida tropicalis) of 8 µg/mL (≈ 14.1 µM) and an MIC80 (Cryptococcus neoformans) of 0.5 µg/mL (≈ 0.881 µM).

Work on `CN(Cc1ccc(OCCCCC(=O)NO)cc1)CC(O)(Cn1cncn1)c1ccc(F)cc1F` (racemic) yielded an MIC80 (Candida albicans [1]) of 2 µg/mL (≈ 4.09 µM), an MIC80 (Candida albicans [2]) of 2 µg/mL (≈ 4.09 µM) and an MIC80 (Candida albicans [3]) of 2 µg/mL (≈ 4.09 µM). For the same compound, the MIC80 (Candida albicans [4]) was 8 µg/mL (≈ 16.3 µM), the MIC80 (Candida tropicalis) was 8 µg/mL (≈ 16.3 µM) and the MIC80 (Cryptococcus neoformans) was 2 µg/mL (≈ 4.09 µM).

In the case of `CCC(C)n1ncn(-c2ccc(N3CCN(c4ccc(OCC5COC(Cn6cncn6)(c6ccc(Cl)cc6Cl)O5)cc4)CC3)cc2)c1=O` (centres undefined) [ITRACONAZOLE], the MIC80 (Candida albicans [1]) is reported as 0.5 µg/mL (≈ 0.709 µM), the MIC80 (Candida albicans [2]) is reported as over 64 µg/mL and the MIC80 (Candida albicans [3]) is reported as over 64 µg/mL. The MIC80 (Candida albicans [4]) was over 64 µg/mL, the MIC80 (Candida tropicalis) was over 64 µg/mL and the MIC80 (Cryptococcus neoformans) was 0.125 µg/mL (≈ 0.177 µM).

`O=C(Cc1ccc(OCCCOc2ccc(CN(CC(O)(Cn3cncn3)c3ccc(F)cc3F)C3CC3)cc2)cc1)NO` (racemic) was tested, and the MIC80 (Candida albicans [1]) was 8 µg/mL (≈ 13.2 µM), the MIC80 (Candida albicans [2]) was 8 µg/mL (≈ 13.2 µM) and the MIC80 (Candida albicans [3]) was 4 µg/mL (≈ 6.58 µM). The MIC80 (Candida albicans [4]) was 32 µg/mL (≈ 52.7 µM), the MIC80 (Candida tropicalis) was 16 µg/mL (≈ 26.3 µM) and the MIC80 (Cryptococcus neoformans) was 4 µg/mL (≈ 6.58 µM).

Work on `CCN(Cc1ccc(OCCCOc2ccc(CC(=O)NO)cc2)cc1)CC(O)(Cn1cncn1)c1ccc(F)cc1F` (racemic) yielded an MIC80 (Candida albicans [1]) of 0.25 µg/mL (≈ 0.42 µM), an MIC80 (Candida albicans [2]) of 1 µg/mL (≈ 1.68 µM) and an MIC80 (Candida albicans [3]) of 1 µg/mL (≈ 1.68 µM). For the same compound, the MIC80 (Candida albicans [4]) was 4 µg/mL (≈ 6.72 µM), the MIC80 (Candida tropicalis) was 4 µg/mL (≈ 6.72 µM) and the MIC80 (Cryptococcus neoformans) was 1 µg/mL (≈ 1.68 µM).

Work on `O=C(NO)c1ccc(OCCCCc2ncn(CC(O)(Cn3cncn3)c3ccc(F)cc3F)n2)cc1` (racemic) yielded an MIC80 (Candida albicans [1]) of 4 µg/mL (≈ 7.79 µM), an MIC80 (Candida albicans [2]) of over 64 µg/mL and an MIC80 (Candida albicans [3]) of 64 µg/mL (≈ 125 µM). For the same compound, the MIC80 (Candida albicans [4]) was over 64 µg/mL, the MIC80 (Candida tropicalis) was over 64 µg/mL and the MIC80 (Cryptococcus neoformans) was 64 µg/mL (≈ 125 µM).

Compound `O=C(Cc1ccc(OCCCc2ncnn2CC(O)(Cn2cncn2)c2ccc(F)cc2F)cc1)NO` (racemic) has an MIC80 (Candida albicans [1]) of 8 µg/mL (≈ 15.6 µM), an MIC80 (Candida albicans [2]) of 32 µg/mL (≈ 62.3 µM) and an MIC80 (Candida albicans [3]) of 16 µg/mL (≈ 31.2 µM). For the same compound, the MIC80 (Candida albicans [4]) was over 64 µg/mL, the MIC80 (Candida tropicalis) was over 64 µg/mL and the MIC80 (Cryptococcus neoformans) was 64 µg/mL (≈ 125 µM).

`CN(Cc1ccc(CCCC(=O)Nc2ccc(CC(=O)NO)cc2)cc1)CC(O)(Cn1cncn1)c1ccc(F)cc1F` (racemic) showed an MIC80 (Candida albicans [1]) of 1 µg/mL (≈ 1.69 µM), an MIC80 (Candida albicans [2]) of 1 µg/mL (≈ 1.69 µM) and an MIC80 (Candida albicans [3]) of 1 µg/mL (≈ 1.69 µM). It also gave an MIC80 (Candida albicans [4]) of 1 µg/mL (≈ 1.69 µM), an MIC80 (Candida tropicalis) of 32 µg/mL (≈ 54 µM) and an MIC80 (Cryptococcus neoformans) of 1 µg/mL (≈ 1.69 µM).
